Drawing on ChEMBL document CHEMBL5532666 (J Med Chem, 2024), this text covers EC50, ΔTm and Activity for twelve molecules.

Each structure is given as a SMILES string. Calls of active or inactive are those of the source. The rule behind the calls is not given here. Where only a bound is given, the exact number is not on record here.

Data set [1] deals with T1, Serine/threonine-protein kinase 24 (Homo sapiens, UniProt Q9Y6E0). Nature of the data set: Binding affinity to C-terminal full length human MST3 expressed in intact HEK293T cells incubated for 2 hrs by NanoBRET assay. The data set is classed as cell-based.
Target sequence in this assay (Q9Y6E0 whole entry): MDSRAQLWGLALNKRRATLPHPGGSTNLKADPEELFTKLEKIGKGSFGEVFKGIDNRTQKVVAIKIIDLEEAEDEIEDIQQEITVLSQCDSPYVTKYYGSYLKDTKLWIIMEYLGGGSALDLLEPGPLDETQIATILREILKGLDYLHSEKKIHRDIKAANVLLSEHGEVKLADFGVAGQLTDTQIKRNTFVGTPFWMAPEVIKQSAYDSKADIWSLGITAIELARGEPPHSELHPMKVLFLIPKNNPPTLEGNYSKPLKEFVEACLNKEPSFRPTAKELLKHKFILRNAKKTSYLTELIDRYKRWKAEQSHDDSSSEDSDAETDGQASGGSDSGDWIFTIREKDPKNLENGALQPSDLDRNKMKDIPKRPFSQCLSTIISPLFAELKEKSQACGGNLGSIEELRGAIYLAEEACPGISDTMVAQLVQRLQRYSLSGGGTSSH
The target in data set [2] is T1, Serine/threonine-protein kinase 24. Nature of the data set: Binding affinity to C-terminal full length human MST3 expressed in permeabilized HEK293T cells incubated for 2 hrs by NanoBRET assay. The data set is classed as cell-based.
Target sequence in this assay (Q9Y6E0 whole entry): as above
The target is the same in data set [3]. As to conditions: dose 10.0 µM.
Target sequence in this assay (Q9Y6E0 whole entry, looked up): as the sequence (Q9Y6E0 whole entry) above
Description: Binding affinity to recombinant MST3 (unknown origin) kinase domain assessed as thermal stabilization by measuring change in melting temperature at 10 uM by DSF analysis
Data set [4] concerns the target T2, Serine/threonine-protein kinase 4 (Homo sapiens, UniProt Q13043).
T2 sequence (Q13043 whole entry): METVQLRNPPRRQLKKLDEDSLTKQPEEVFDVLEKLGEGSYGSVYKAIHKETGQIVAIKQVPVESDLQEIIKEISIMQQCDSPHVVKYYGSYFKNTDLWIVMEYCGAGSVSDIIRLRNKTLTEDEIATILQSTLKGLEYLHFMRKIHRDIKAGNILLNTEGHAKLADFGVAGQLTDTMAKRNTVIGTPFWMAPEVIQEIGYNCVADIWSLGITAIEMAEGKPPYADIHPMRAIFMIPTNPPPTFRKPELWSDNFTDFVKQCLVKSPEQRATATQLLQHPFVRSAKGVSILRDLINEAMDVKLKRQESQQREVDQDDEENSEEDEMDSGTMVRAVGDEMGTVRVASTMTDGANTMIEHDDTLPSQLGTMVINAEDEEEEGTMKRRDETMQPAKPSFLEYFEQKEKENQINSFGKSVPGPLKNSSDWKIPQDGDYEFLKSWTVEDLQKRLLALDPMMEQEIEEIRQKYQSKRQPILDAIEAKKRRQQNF
The data set is described as follows: Binding affinity to N-terminal full length human MST1 expressed in intact HEK293T cells incubated for 2 hrs by NanoBRET assay. The class given is cell-based.

The target of data set [5] is T3, Serine/threonine-protein kinase 3 (Homo sapiens, UniProt Q13188).
T3 sequence (Q13188 whole entry): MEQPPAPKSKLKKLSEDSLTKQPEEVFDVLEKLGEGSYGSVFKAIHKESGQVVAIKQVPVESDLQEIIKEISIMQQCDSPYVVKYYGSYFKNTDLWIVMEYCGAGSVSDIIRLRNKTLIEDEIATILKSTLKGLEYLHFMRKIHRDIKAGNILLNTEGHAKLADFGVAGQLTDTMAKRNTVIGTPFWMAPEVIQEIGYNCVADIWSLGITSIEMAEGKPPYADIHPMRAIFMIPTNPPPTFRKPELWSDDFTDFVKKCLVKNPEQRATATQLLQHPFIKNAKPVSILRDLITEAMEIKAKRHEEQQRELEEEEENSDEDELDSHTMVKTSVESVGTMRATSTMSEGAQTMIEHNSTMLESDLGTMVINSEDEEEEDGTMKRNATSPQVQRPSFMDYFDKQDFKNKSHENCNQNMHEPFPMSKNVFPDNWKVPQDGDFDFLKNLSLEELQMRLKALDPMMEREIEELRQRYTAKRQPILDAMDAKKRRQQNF
Nature of the data set: Binding affinity to N-terminal full length human MST2 expressed in intact HEK293T cells incubated for 2 hrs by NanoBRET assay. The class given is cell-based.

Data set [6] deals with T4, Serine/threonine-protein kinase 26 (Homo sapiens, UniProt Q9P289). The data set is described as follows: Binding affinity to C-terminal full length human MST4 expressed in permeabilized HEK293T cells incubated for 2 hrs by NanoBRET assay. The data set is classed as cell-based.
Target sequence in this assay (Q9P289 whole entry): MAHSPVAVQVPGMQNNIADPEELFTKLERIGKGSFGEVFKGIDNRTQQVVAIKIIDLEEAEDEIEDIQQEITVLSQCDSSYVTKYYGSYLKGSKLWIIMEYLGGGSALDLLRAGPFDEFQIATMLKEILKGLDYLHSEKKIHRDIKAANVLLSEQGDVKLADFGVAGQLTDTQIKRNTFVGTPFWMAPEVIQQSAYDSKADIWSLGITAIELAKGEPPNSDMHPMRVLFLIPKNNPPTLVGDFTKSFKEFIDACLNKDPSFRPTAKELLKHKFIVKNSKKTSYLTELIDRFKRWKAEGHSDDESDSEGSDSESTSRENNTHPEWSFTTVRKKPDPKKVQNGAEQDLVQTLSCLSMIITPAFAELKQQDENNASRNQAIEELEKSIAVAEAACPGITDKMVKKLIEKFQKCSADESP
Data set [7] concerns the target T4, Serine/threonine-protein kinase 26. The data set is described as follows: Binding affinity to C-terminal full length human MST4 expressed in intact HEK293T cells incubated for 2 hrs by NanoBRET assay. The class given is cell-based.
Target sequence in this assay (Q9P289 whole entry): as above
For data set [8] the target is unchanged. The conditions noted are these: dose 10.0 µM.
Target sequence in this assay (Q9P289 2-416 limits assumed): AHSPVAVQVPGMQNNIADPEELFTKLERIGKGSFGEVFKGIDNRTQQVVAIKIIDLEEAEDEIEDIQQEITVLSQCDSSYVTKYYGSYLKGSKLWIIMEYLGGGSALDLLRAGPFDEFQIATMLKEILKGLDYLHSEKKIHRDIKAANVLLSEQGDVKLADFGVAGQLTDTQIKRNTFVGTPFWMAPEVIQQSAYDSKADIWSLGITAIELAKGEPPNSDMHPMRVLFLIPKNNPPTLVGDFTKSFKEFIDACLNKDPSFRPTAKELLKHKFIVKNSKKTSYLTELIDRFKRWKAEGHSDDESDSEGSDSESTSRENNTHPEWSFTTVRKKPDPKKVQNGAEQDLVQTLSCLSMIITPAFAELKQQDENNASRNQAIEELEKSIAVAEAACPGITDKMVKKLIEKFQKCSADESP
Description: Binding affinity to recombinant MST4 (unknown origin) kinase domain assessed as thermal stabilization by measuring change in melting temperature at 10 uM by DSF analysis
Data set [9] has as its target T5, Serine/threonine-protein kinase 3 (Homo sapiens) (UniProt Q13188).
T5 sequence (whole entry): T3 sequence (Q13188 whole entry)
As to conditions: dose 10.0 µM.
Description: Binding affinity to recombinant MST2 (unknown origin) kinase domain assessed as thermal stabilization by measuring change in melting temperature at 10 uM by DSF analysis

Data set [10] has as its target T6, Serine/threonine-protein kinase 4 (Homo sapiens) (UniProt Q13043).
T6 sequence (whole entry): T2 sequence (Q13043 whole entry)
The conditions noted are these: dose 10.0 µM.
Description: Binding affinity to recombinant MST1 (unknown origin) kinase domain assessed as thermal stabilization by measuring change in melting temperature at 10 uM by DSF analysis

The subject of data set [11] is HCT-116. The data set is described as follows: Cell cycle arrest in human HCT-116 cells expressing […] assessed as G2/M phase cells at 1 uM incubated for 72 hrs by Hoechst33342 staining based analysis (reference value: 38%). The data set is classed as functional.
A short description of data set [12]: Toxicity in human HCT-116 cells expressing FUCCI assessed as decrease in normalized cell count at 1 to 10 uM measured after 72 hrs by Hoechst33342 staining based analysis relative to control. Details: scale not given: the % may be the effect or the level left. The conditions noted are these: hct-116, 72 h, dose 1-10 µM.
In data set [13] the test system is HCT-116. Nature of the data set: Cell cycle arrest in human HCT-116 cells expressing […] assessed as G2/M phase cells at 10 uM incubated for 72 hrs by Hoechst33342 staining based analysis (reference value: 38%). The data set is classed as functional.
Data set [14] deals with HCT-116. The data set is described as follows: Cell cycle arrest in human HCT-116 cells expressing […] assessed as S phase cells at 1 uM incubated for 72 hrs by Hoechst33342 staining based analysis relative to control. The data set is classed as functional.
Data set [15] deals with T5, Serine/threonine-protein kinase 3 (Homo sapiens). Nature of the data set: Binding affinity to MST2 (unknown origin) assessed as residual activity at 10 uM relative to control.
Data set [16] has as its system HCT-116. The data set is described as follows: Cell cycle arrest in human HCT-116 cells expressing […] assessed as G1 phase cells at 10 uM incubated for 72 hrs by Hoechst33342 staining based analysis (reference value: 52%). The data set is classed as functional.
Data set [17] deals with HCT-116. The data set is described as follows: Cell cycle arrest in human HCT-116 cells expressing […] assessed as G1 phase cells at 1 uM incubated for 72 hrs by Hoechst33342 staining based analysis (reference value: 52%). The data set is classed as functional.
Data set [18] addresses T4, Serine/threonine-protein kinase 26. Nature of the data set: Binding affinity to MST4 (unknown origin) assessed as residual activity at 10 uM relative to control.
Target sequence in this assay (Q9P289 2-416 limits assumed): as above
The target in data set [19] is T6, Serine/threonine-protein kinase 4 (Homo sapiens). Nature of the data set: Binding affinity to MST1 (unknown origin) assessed as residual activity at 10 uM relative to control.
The test system of data set [20] is HCT-116. Nature of the data set: Cell cycle arrest in human HCT-116 cells expressing […] assessed as S phase cells at 10 uM incubated for 72 hrs by Hoechst33342 staining based analysis relative to control. The data set is classed as functional.
The target of data set [21] is Glycogen synthase kinase-3 beta (Homo sapiens) (UniProt P49841). The data set is described as follows: Binding affinity to GSK3B (unknown origin) assessed as thermal stabilization by measuring change in melting temperature by DSF analysis.
Chain of Glycogen synthase kinase-3 beta (Homo sapiens) (P49841 whole entry, looked up): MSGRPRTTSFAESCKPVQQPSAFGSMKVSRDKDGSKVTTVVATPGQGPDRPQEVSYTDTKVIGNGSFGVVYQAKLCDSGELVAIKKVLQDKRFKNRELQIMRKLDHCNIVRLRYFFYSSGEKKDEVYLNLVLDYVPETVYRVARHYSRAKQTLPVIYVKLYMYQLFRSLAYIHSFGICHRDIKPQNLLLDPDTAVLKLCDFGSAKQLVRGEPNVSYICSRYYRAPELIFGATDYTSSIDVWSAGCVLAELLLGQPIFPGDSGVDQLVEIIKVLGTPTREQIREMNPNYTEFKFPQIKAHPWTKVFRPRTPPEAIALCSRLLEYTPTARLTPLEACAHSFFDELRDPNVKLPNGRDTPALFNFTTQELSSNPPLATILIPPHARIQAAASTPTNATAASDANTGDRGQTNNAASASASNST

As for `O=C1NCCCCCCNc2ncc(Cl)c(n2)Nc2cc1[nH]n2`, the EC50 is > 50 µM in data set [1]; 21.9 µM in data set [2]; > 50 µM in [4]; > 50 µM in data set [5]; 45 µM in data set [6]; > 50 µM in data set [7]. For the same molecule, the ΔTm was found to be 0.3 °C in data set [3], 2.1 °C in data set [8], 1 °C in data set [9] and 1.5 °C in [10].
`O=C1NCCCCCNc2ncc(Cl)c(n2)Nc2cc1[nH]n2`: the EC50 in data set [1] was 40.3 µM; in data set [2], 2.67 µM; in [4], 9.74 µM; in data set [5] it was 10.1 µM; in data set [6], 7.76 µM; in data set [7] it was > 50 µM. For the same molecule, the ΔTm stood at 2.7 °C in data set [3], 1.6 °C in [8], 2.8 °C in [9] and 2.5 °C in data set [10].
In the case of `O=C1NCCc2cccc(c2)Nc2nc(c3ccccc3n2)Nc2cc1[nH]n2`, the EC50 in [1] worked out at 6.51 µM; in [2], 0.92 µM; in data set [4], 13.7 µM; in data set [5] it was 13 µM; in data set [6], 2.44 µM; in data set [7] it was 11.8 µM. Besides, the ΔTm in [3] came out at 3.9 °C; in data set [8], 4 °C; in [9] it was 1.3 °C; in data set [10] it was 1.7 °C.
In the case of `O=C1NCCc2cccc(c2)Nc2ncc(Cl)c(n2)Nc2cc1[nH]n2`, the EC50 was found to be 14.1 µM in data set [1]; 8.53 µM in data set [2]; 7.84 µM in data set [4]; 7.54 µM in [5]; 10.3 µM in [6]; 10.2 µM in data set [7]. For the same molecule, the thermal shift (ΔTm) in data set [3] amounted to 2.9 °C; in [8], 0.6 °C; in [9], 1.7 °C; in data set [10] it was 0.8 °C.
On to `O=C1NCCOCCNc2ncc(Cl)c(n2)Nc2cc1[nH]n2`, for which the EC50 in [1] is > 50 µM; in data set [2] it was 17.7 µM; in data set [4], > 50 µM; in [5] it was > 50 µM; in [6], 41.8 µM; in data set [7] it was > 50 µM. For the same molecule, the ΔTm was 0.6 °C in data set [3], 2.8 °C in data set [8], 0.6 °C in data set [9] and 1.1 °C in data set [10].
As for `N#CCc1ccc(Nc2nccc(Nc3cc(C4CC4)[nH]n3)n2)cc1`, the EC50 in data set [1] stood at 6.54 µM; in data set [7], 4.84 µM. The Activity in data set [11] was 30%; in data set [12], < 50%; in [13], 42%; in data set [14], 18%; in data set [15], 0.15%; in [16], 42%. The Activity in data set [17] is 52%; in [18], 0.15%; in data set [19], 0.15%; in [20], 16%. The ΔTm in data set [3] stood at 9.3 °C; in data set [8] it was 7.1 °C; in data set [9], 11.6 °C; in data set [10], 9.6 °C.
With `CNC(=O)c1nn(C)c2c1C(C)(C)Cc1cnc(Nc3ccc(N4CCN(C)CC4)cc3)nc1-2` [MILCICLIB], the Activity in [11] is reported as 19%; in data set [13], 21%; in [16], 63%; in [17] it was 72%; in [20], 16%.
On to `O=C1NCCc2ccc(cc2)Nc2nc(c3ccccc3n2)Nc2cc1[nH]n2`, for which the EC50 in [1] came to 4.45 µM; in [2], 1.46 µM; in data set [4] it was 28.6 µM; in data set [5], 28.3 µM; in data set [6] it was 2.75 µM; in data set [7], 17.5 µM. For the same molecule, the ΔTm turned out to be 3.3 °C in data set [3], 4.7 °C in data set [8], 2.3 °C in [9] and 1 °C in [10].
For `O=C1NCCCCCCNc2nc(c3ccccc3n2)Nc2cc1[nH]n2`, the EC50 is 1.75 µM in [1]; 0.45 µM in data set [2]; > 50 µM in [4]; 40.1 µM in data set [5]; 1.26 µM in [6]. Further, the ΔTm is > 5 °C in data set [21]; 3.7 °C in data set [3]; 4 °C in data set [8]; 0.4 °C in data set [9]; 0.7 °C in data set [10].
`O=C1NCCOCCNc2nc(c3ccccc3n2)Nc2cc1[nH]n2`: the EC50 in [1] was 4.49 µM; in data set [2] it was 1.23 µM; in [4] it was > 50 µM; in data set [5], > 50 µM; in [6], 4.3 µM; in data set [7] it was 37.6 µM. Moreover, the outcome in [21] was inactive. Further, the ΔTm in [3] came to 2.5 °C; in data set [8], 2.5 °C; in [9], 0.5 °C; in data set [10], 0.6 °C.
On to `O=C1NCCc2ccc(cc2)Nc2ncc(Cl)c(n2)Nc2cc1[nH]n2`, for which the EC50 stood at 4.97 µM in data set [1]; 5.17 µM in [2]; 11.8 µM in data set [4]; 9.96 µM in [5]; 7.61 µM in data set [6]; 6.71 µM in [7]. The ΔTm is 1.2 °C in data set [3], 0.7 °C in data set [8], 0.7 °C in data set [9] and 0.3 °C in data set [10].
In the case of `Cc1cnc2nc1Nc1cc([nH]n1)C(=O)NCCc1ccc(cc1)N2`, the EC50 in [1] is 37 µM; in data set [2], 38.3 µM; in data set [4], > 50 µM; in data set [5] it was > 50 µM; in data set [6] it was > 50 µM; in [7], 38.8 µM. Further, the shift in melting temperature (ΔTm) in [3] stood at 0.5 °C; in [8], 2.3 °C; in [9], 0.2 °C; in data set [10], 1 °C.
